Test results published in patent publication US9635853B2, “Insecticidal compounds” (Syngenta Participations AG, priority 2013, dated 2017).

Key:
Format in all cases: in vivo
Heliothis virescens = Heliothis virescens (Tobacco budworm) egg/artificial diet test; conditions: 96 h, 200 ppm (concentration in well 18 ppm), eggs on artificial diet, 4 days, egg mortality, larval mortality, growth regulation
Method: Heliothis virescens (Tobacco budworm): Eggs (0-24 h old) were placed in 24-well microtiter plate on artificial diet and treated with test solutions at an application rate of 200 ppm (concentration in well 18 ppm) by pipetting. After an incubation period of 4 days, samples were checked for egg mortality, larval mortality, and growth regulation.

Spodoptera littoralis = Spodoptera littoralis (Egyptian cotton leafworm) leaf disc test; conditions: foliar, 72 h, 200 ppm sprayed on cotton leaf discs, L1 larvae, mortality, feeding behavior, growth regulation 3 DAT
Excerpt: Spodoptera littoralis (Egyptian cotton leafworm): Cotton leaf discs were placed on agar in a 24-well microtiter plate and sprayed with test solutions at an application rate of 200 ppm. After drying, the leaf discs were infested with 5 L1 larvae. The samples were checked for mortality, feeding behavior, and growth regulation 3 days after treatment (DAT).

Myzus persicae = Myzus persicae (Green peach aphid) leaf disc test; conditions: foliar, 144 h, 200 ppm sprayed on sunflower leaf discs, aphid population of mixed ages, 6 DAT, mortality
Method: Myzus persicae (Green peach aphid): Sunflower leaf discs were placed on agar in a 24-well microtiter plate and sprayed with test solutions at an application rate of 200 ppm. After drying, the leaf discs were infested with an aphid population of mixed ages. After an incubation period of 6 DAT, samples were checked for mortality.

Plutella xylostella = Plutella xylostella (Diamond back moth) artificial diet test; conditions: 144 h, 200 ppm (concentration in well 18 ppm), L2 larvae, 6 days, larval mortality and growth regulation
Method: Plutella xylostella (Diamond back moth): 24-well microtiter plate (MTP) with artificial diet was treated with test solutions at an application rate of 200 ppm (concentration in well 18 ppm) by pipetting. After drying, the MTP's were infested with L2 larvae (7-12 per well). After an incubation period of 6 days, samples were checked for larval mortality and growth regulation.

Tetranychus urticae = Tetranychus urticae (Two-spotted spider mite) leaf disc test; conditions: foliar, 192 h, 200 ppm sprayed on bean leaf discs, mite populations of mixed ages, 8 days, egg, larval and adult mortality
Excerpt: Tetranychus urticae (Two-spotted spider mite): Bean leaf discs on agar in 24-well microtiter plates were sprayed with test solutions at an application rate of 200 ppm. After drying, the leaf discs are infested with mite populations of mixed ages. 8 days later, discs are checked for egg mortality, larval mortality, and adult mortality.

Thrips tabaci = Thrips tabaci (Onion thrips) leaf disc test; conditions: foliar, 168 h, 200 ppm sprayed on sunflower leaf discs, population of mixed ages, 7 days, mortality
Method: Thrips tabaci (Onion thrips): Sunflower leaf discs were placed on agar in a 24-well microtiter plate and sprayed with test solutions at an application rate of 200 ppm. […] After an incubation period of 7 days, samples were checked for mortality.

Diabrotica balteata = Diabrotica balteata (Corn root worm) artificial diet test; conditions: 120 h, 200 ppm (concentration in well 18 ppm), L2 larvae, 5 days, larval mortality and growth regulation
Method: Diabrotica balteata (Corn root worm): A 24-well microtiter plate (MTP) with artificial diet was treated with test solutions at an application rate of 200 ppm (concentration in well 18 ppm) by pipetting. After drying, the MTP's were infested with L2 larvae (6-10 per well). After an incubation period of 5 days, samples were checked for larval mortality and growth regulation.

Measured: pest or weed control at 200 ppm

CCN(C(=O)c1ccncc1)c1cccc(C(=O)Nc2c(Cl)cc(C(F)(C(F)(F)F)C(F)(F)F)cc2Br)c1F [Compound 1, N′-[3-[[2-bromo-6-chloro-4-[1,1,1,2,3,3,3-heptafluoro-prop-2-yl]phenyl]carbamoyl]-2-fluoro-phenyl]-N-ethyl-pyridine-4-carboxamide]
≥ 80%: all assays above

CCN(C(=O)c1cc[n+]([O-])cc1)c1cccc(C(=O)Nc2c(Cl)cc(C(F)(C(F)(F)F)C(F)(F)F)cc2Br)c1F [Compound 2, N′-[3-[[2-bromo-6-chloro-4-[1,1,1,2,3,3,3-heptafluoro-prop-2-yl]phenyl]carbamoyl]-2-fluoro-phenyl]-N-ethyl-1-oxido-pyridin-1-ium-4-carboxamide]
≥ 80%: all assays above

CN(C(=O)c1ccncc1)c1cccc(C(=O)Nc2c(Cl)cc(C(F)(C(F)(F)F)C(F)(F)F)cc2Br)c1F [Compound 3]
not listed: Heliothis virescens
≥ 80%: all other assays above

CCc1cc(C(F)(C(F)(F)F)C(F)(F)F)cc(CC)c1NC(=O)c1cccc(N(CC)C(=O)c2ccncc2)c1F [Compound 4]
not listed: Heliothis virescens
≥ 80%: all other assays above

CCc1cc(C(F)(C(F)(F)F)C(F)(F)F)cc(CC)c1NC(=O)c1cccc(N(CC)C(=O)c2cc[n+]([O-])cc2)c1F [Compound 5]
not listed: Heliothis virescens | Spodoptera littoralis
≥ 80%: all other assays above

CCN(C(=O)c1ccncc1)c1cccc(C(=O)Nc2c(Br)cc(C(F)(C(F)(F)F)C(F)(F)F)cc2Br)c1F [Compound 6]
≥ 80%: all assays above

CCN(C(=O)c1ccncc1)c1cccc(C(=O)Nc2c(Br)cc(C(F)(C(F)(F)F)C(F)(F)F)cc2OC(F)F)c1F [Compound 7]
≥ 80%: all assays above

CN(C(=O)c1ccncc1)c1cccc(C(=O)Nc2c(Br)cc(C(F)(C(F)(F)F)C(F)(F)F)cc2Br)c1F [Compound 8]
≥ 80%: all assays above

CN(C(=O)c1cc[n+]([O-])cc1)c1cccc(C(=O)Nc2c(Br)cc(C(F)(C(F)(F)F)C(F)(F)F)cc2Br)c1F [Compound 9]
≥ 80%: all assays above

CN(C(=O)c1ccncc1)c1cccc(C(=O)Nc2c(Cl)cc(C(F)(C(F)(F)F)C(F)(F)F)cc2Cl)c1F [Compound 10]
≥ 80%: all assays above

CCN(C(=O)c1ccncc1)c1cccc(C(=O)Nc2c(Cl)cc(C(F)(C(F)(F)F)C(F)(F)F)cc2Cl)c1F [Compound 11]
≥ 80%: all assays above

Cc1cc(C(F)(C(F)(F)F)C(F)(F)F)cc(Cl)c1NC(=O)c1cccc(N(C)C(=O)c2ccncc2)c1F [Compound 12]
≥ 80%: all assays above

CCc1cc(C(F)(C(F)(F)F)C(F)(F)F)cc(Cl)c1NC(=O)c1cccc(N(CC)C(=O)c2ccncc2)c1F [Compound 13]
≥ 80%: all assays above

CCN(C(=O)c1ccncc1)c1cccc(C(=O)Nc2c(C)cc(C(F)(C(F)(F)F)C(F)(F)F)cc2Cl)c1F [Compound 14]
≥ 80%: all assays above

CCN(C(=O)c1ccncc1)c1cccc(C(=O)Nc2c(Cl)cc(C(F)(C(F)(F)F)C(F)(F)F)cc2OC(F)F)c1F [Compound 18]
not listed: Heliothis virescens
≥ 80%: all other assays above

CCN(C(=O)c1ccncc1)c1cccc(C(=O)Nc2c(C)cc(C(F)(C(F)(F)F)C(F)(F)F)cc2OC(F)F)c1F [Compound 19]
not listed: Heliothis virescens
≥ 80%: all other assays above
